Where “and” joins values, the source holds several entries; their conditions need not be identical. Equal values may be shown once.
Tests used:
HCMV polymerase = molecular target: T1, HCMV polymerase (Human cytomegalovirus, UniProt P08546); test: HCMV polymerase assay (scintillation proximity assay), original and modified version; type: biochemical; details: SPA; several values per example = repeat determinations, assay version not given; read-out: CMV Polymerase IC50
T1 construct: made in house; host or cells: SF-9 insect cells infected with recombinant baculovirus
T1 sequence (P08546 whole entry): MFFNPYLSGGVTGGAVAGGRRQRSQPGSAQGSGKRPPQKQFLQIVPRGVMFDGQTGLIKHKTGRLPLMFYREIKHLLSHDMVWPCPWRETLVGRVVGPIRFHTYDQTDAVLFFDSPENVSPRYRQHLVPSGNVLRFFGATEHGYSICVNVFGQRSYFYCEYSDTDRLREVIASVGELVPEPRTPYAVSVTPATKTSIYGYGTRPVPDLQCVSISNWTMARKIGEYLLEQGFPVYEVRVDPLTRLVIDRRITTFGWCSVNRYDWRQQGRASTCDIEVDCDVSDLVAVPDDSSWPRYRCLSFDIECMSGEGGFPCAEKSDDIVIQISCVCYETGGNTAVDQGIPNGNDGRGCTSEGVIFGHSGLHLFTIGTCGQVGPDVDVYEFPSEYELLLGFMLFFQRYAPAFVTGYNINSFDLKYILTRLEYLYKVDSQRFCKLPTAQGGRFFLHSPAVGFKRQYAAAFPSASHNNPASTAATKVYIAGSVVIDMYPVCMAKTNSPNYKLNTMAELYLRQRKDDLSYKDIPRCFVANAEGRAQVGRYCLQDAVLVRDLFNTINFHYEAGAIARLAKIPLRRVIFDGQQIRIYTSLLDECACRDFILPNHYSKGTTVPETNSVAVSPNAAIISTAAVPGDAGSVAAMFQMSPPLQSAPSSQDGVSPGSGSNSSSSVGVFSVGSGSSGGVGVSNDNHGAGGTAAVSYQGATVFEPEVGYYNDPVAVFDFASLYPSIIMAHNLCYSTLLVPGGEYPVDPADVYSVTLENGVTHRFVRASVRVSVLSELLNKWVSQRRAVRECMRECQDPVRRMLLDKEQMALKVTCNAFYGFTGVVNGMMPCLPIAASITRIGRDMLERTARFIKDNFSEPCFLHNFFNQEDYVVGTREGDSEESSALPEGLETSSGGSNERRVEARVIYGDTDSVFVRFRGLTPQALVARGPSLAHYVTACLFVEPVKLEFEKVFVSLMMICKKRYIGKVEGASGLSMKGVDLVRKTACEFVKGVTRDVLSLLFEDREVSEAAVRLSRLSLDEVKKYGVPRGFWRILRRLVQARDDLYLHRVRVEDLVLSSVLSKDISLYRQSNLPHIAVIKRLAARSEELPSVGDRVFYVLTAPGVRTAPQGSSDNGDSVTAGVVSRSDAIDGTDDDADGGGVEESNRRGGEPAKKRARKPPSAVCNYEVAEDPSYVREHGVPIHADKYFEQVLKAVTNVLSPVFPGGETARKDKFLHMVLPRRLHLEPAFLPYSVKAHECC
Procedure: The HCMV polymerase assay is performed using a scintillation proximity assay (SPA) as described in several references, such as N.D. Cook, et al., Pharmaceutical Manufacturing International, pages 49-53 (1992); K. Takeuchi, Laboratory Practice, September issue (1992); U.S. Pat. No. 4,568,649 (1986); which are incorporated by reference herein. Reactions are performed in 96-well plates. The assay is conducted in 100 μl volume with 5.4 mM HEPES (pH 7.5), 11.7 MM KCl, 4.5 mM MgCl2, 0.36 mg/ml BSA, and 90 nM ^3H-dTTP. Assays are run with and without CHAPS, (3-[(3-Cholamidopropyl)-dimethylammoniol-1-propane-sulfonate) at a final concentration of 2 mM. HCMV polymerase is diluted in enzyme dilution buffer containing 50% glycerol, 250 mM NaCl, 10 mM HEPES (pH 7.5), 100 μg/ml BSA, and 0.01% sodium azide. The HCMV polymerase, which is expressed in recombinant baculovirus-infected SF-9 cells and purified according to literature procedures, is added at 10% (or 10 μl) of the final reaction volume, i.e., 100 μl. Compounds are diluted in 50% DMSO and 10 μl are added to each well. Control wells contain an equivalent concentration of DMSO. Unless noted otherwise, reactions are initiated via the addition of 6 nM biotinylated poly(dA)-oligo(dT) template/primer to reaction mixtures containing the enzyme, substrate, and compounds of interest. Plates are incubated in a 25° C. or 37° C. H2O bath and terminated via the addition of 40 μl/reaction of 0.5 M EDTA (pH 8) per well. Reactions are terminated within the time-frame during which substrate incorporation is linear and varied depending upon the enzyme and conditions used, i.e., 30 min. for HCMV polymerase. Ten (10) μl of streptavidin-SPA beads (20 mg/ml in PBS/10% glycerol) are added following termination of the reaction. Plates are incubated 10 min. at 37° C., then equilibrated to room temperature, and counted on a Packard Topcount. Linear regressions are performed and IC50's are calculated using computer software.
A modified version of the above HCMV polymerase assay is performed as described above, but with the following changes: Compounds are diluted in 100% DMSO until final dilution into assay buffer. In the previous assay, compounds are diluted in 50% DMSO. 4.5 mM dithiotherotol (DTT) is added to the polymerase buffer.

Alpha Polymerase = molecular target: T2, Alpha Polymerase (Homo sapiens, UniProt P09884); test: Alpha polymerase inhibition (selectivity); type: biochemical
T2 sequence (P09884 1-1462): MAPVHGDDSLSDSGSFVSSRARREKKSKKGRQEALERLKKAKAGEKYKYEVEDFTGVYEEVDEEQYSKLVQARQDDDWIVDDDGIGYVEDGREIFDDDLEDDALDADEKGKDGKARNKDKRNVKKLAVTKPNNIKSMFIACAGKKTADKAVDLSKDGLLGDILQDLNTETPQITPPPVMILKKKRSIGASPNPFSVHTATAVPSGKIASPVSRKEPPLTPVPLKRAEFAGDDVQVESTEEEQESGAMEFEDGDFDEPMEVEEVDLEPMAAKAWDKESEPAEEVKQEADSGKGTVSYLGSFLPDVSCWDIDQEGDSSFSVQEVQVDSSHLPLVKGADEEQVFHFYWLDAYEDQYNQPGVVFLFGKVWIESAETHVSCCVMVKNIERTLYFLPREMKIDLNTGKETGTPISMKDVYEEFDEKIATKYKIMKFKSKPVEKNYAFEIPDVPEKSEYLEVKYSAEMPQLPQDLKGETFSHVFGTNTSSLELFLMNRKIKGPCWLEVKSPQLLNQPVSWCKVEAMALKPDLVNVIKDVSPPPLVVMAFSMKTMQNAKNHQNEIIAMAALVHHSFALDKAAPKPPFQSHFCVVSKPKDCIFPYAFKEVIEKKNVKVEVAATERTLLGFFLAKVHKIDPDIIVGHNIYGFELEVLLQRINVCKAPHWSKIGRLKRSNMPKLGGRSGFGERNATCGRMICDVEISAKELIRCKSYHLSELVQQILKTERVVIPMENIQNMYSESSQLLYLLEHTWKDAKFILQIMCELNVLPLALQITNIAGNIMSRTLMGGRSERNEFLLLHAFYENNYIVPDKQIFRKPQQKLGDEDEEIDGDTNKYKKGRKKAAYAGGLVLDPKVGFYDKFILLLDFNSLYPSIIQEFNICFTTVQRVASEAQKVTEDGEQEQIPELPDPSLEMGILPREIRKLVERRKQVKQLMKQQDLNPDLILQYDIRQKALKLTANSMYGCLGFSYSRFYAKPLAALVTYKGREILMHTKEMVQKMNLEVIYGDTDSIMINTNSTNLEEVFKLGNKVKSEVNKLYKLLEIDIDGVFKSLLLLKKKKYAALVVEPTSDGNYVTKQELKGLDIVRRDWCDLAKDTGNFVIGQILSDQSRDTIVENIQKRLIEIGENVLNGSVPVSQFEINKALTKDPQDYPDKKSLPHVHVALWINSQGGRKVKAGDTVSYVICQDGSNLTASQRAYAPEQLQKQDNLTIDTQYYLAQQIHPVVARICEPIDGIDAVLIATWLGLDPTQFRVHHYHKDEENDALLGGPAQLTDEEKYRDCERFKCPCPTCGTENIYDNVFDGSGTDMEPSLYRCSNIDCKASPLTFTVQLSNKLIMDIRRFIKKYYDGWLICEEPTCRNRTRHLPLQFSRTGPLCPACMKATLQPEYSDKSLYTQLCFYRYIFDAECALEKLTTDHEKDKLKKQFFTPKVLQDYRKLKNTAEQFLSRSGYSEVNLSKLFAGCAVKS

| IC50 (HCMV polymerase) | IC50 (Alpha Polymerase) [µM] | melting point [°C] | SMILES |
| --- | --- | --- | --- |
| 32 nM | 4.39 | 161 to 163 | CN(Cc1cc2c3c(c1)c(=O)c(C(=O)NCc1ccc(F)cc1)cn3CC(=O)N2C)CC(O)c1cc2ccccc2o1 (racemic) [Example 33, rac 9-{[[2-(1-benzofuran-2-yl)-2-hydroxyethyl](methyl)amino]methyl}-N-(4-fluorobenzyl)-1-methyl-2,7-dioxo-2,3-dihydro-1H,7H-pyrido[1,2,3-de]quinoxaline-6-carboxamide] |
| 70 nM and 93 nM | > 5 | 145 to 148 | CN(Cc1cc2c3c(c1)c(=O)c(C(=O)NCc1ccc(Cl)cc1)cn3CC(=O)N2C)CC(O)c1ccc(O)cc1 (racemic) [Example 2, rac N-(4-chlorobenzyl)-9-{([2-hydroxy-2-(4-hydroxyphenyl)ethyl](methyl)amino)methyl}-1-methyl-2,7-dioxo-2,3-dihydro-1H,7H-pyrido[1,2,3-de]quinoxaline-6-carboxamide] |
|  | ≥ 20 |  | CN(Cc1cc2c3c(c1)c(=O)c(C(=O)NCc1ccc(Cl)cc1)cn3CC(=O)N2C)C[C@@H](O)c1ccccc1 [Example 12, N-(4-chlorobenzyl)-9-{[[(2S)-2-hydroxy-2-phenylethyl](methyl)amino]methyl}-1-methyl-2,7-dioxo-2,3-dihydro-1H,7H-pyrido[1,2,3-de]quinoxaline-6-carboxamide] |
| 2080 nM |  | 156 to 158 | CN(Cc1cc2c3c(c1)c(=O)c(C(=O)NCc1ccc(F)cc1)cn3CC(=O)N2C)C[C@@H](O)c1nccs1 [Example 27, N-(4-fluorobenzyl)-9-{[[(2R)-2-hydroxy-2-(1,3-thiazol-2-yl)ethyl](methyl)amino]methyl}-1-methyl-2,7-dioxo-2,3-dihydro-1H,7H-pyrido[1,2,3-de]quinoxaline-6-carboxamide] |
| 570 nM |  | 145 to 148 | CN(Cc1cc2c3c(c1)c(=O)c(C(=O)NCc1ccc(Cl)cc1)cn3CC(=O)N2C)CC(O)c1ccoc1 (racemic) [Example 4, rac N-(4-chlorobenzyl)-9-{([2-(3-furyl)-2-hydroxyethyl](methyl)amino)methyl}-1-methyl-2,7-dioxo-2,3-dihydro-1H,7H-pyrido[1,2,3-de]quinoxaline-6-carboxamide] |
| 870 nM |  | 121 to 127 | CN(Cc1cc2c3c(c1)c(=O)c(C(=O)NCc1ccc(Cl)cc1)cn3CC(=O)N2C)CC(O)Cc1ccccc1 (racemic) [Example 17, rac N-(4-chlorobenzyl)-9-{[(2-hydroxy-3-phenylpropyl)(methyl)amino]methyl}-1-methyl-2,7-dioxo-2,3-dihydro-1H,7H-pyrido [1,2,3-de]quinoxaline-6-carboxamide] |
| 240 nM |  | 133 to 136 | COc1cc(C(O)CN(C)Cc2cc3c4c(c2)c(=O)c(C(=O)NCc2ccc(Cl)cc2)cn4CC(=O)N3C)ccc1O (racemic) [Example 10, rac N-(4-chlorobenzyl)-9-{([2-hydroxy-2-(4-hydroxy-3-methoxyphenyl)ethyl](methyl)amino)methyl}-1-methyl-2,7-dioxo-2,3-dihydro-1H,7H-pyrido[1,2,3-de]quinoxaline-6-carboxamide] |
| 490 nM |  | 125 to 130 | CN(Cc1cc2c3c(c1)c(=O)c(C(=O)NCc1ccc(Cl)cc1)cn3CC(=O)N2C)C[C@@H](O)c1nccs1 [Example 22, N-(4-chlorobenzyl)-9-{[[(2R)-2-hydroxy-2-(1,3-thiazol-2-yl)ethyl](methyl)amino]methyl}-1-methyl-2,7-dioxo-2,3-dihydro-1H,7H-pyrido[1,2,3-de]quinoxaline-6-carboxamide] |
| 1870 nM |  | 121 to 123 | CN(Cc1cc2c3c(c1)c(=O)c(C(=O)NCc1ccc(F)cc1)cn3CC(=O)N2C)C[C@@H](O)c1ccccn1 [Example 24, N-(4-fluorobenzyl)-9-{[[(2R)-2-hydroxy-2-pyridin-2-ylethyl](methyl)amino]methyl}-1-methyl-2,7-dioxo-2,3-dihydro-1H,7H-pyrido[1,2,3-de]quinoxaline-6-carboxamide] |
| 930 nM |  | 108 to 110 | CN(Cc1cc2c3c(c1)c(=O)c(C(=O)NCc1ccc(F)cc1)cn3CC(=O)N2C)C[C@@H](O)c1cccnc1 [Example 25] |
| 490 nM |  | 168 to 170 | CN(Cc1cc2c3c(c1)c(=O)c(C(=O)NCc1ccc(Cl)cc1)cn3CC(=O)N2C)CC(O)c1ncccn1 (racemic) [Example 19, rac N-(4-chlorobenzyl)-9-{([2-hydroxy-2-pyrimidin-2-ylethyl](methyl)amino)methyl}-1-methyl-2,7-dioxo-2,3-dihydro-1H,7H-pyrido [1,2,3-de]quinoxaline-6-carboxamide] |
| 880 nM |  | 195 to 197 | CN(Cc1cc2c3c(c1)c(=O)c(C(=O)NCc1ccc(Cl)cc1)cn3CC(=O)N2CCO)CC(O)c1cc2ccccc2o1 (racemic) [Example 26, rac 9-{([2-(1-benzofuran-2-yl)-2-hydroxyethyl](methyl)amino)methyl}-N-(4-chlorobenzyl)-1-(2-hydroxyethyl)-2,7-dioxo-2,3-dihydro-1H,7H-pyrido[1,2,3-de]quinoxaline-6-carboxamide] |
| 8.6 nM and 7.8 nM and 7.2 nM | > 5 |  | CN(Cc1cc2c3c(c1)c(=O)c(C(=O)NCc1ccc(Cl)cc1)cn3CC(=O)N2C)CC(O)c1cc2ccccc2o1 (racemic) [Example 3, rac 9-{([2-(1-benzofuran-2-yl)-2-hydroxyethyl](methyl)amino)methyl}-N-(4-chlorobenzyl)-1-methyl-2,7-dioxo-2,3-dihydro-1H,7H-pyrido[1,2,3-de]quinoxaline-6-carboxamide] |
| 1090 nM |  | 108 to 110 | CN(Cc1cc2c3c(c1)c(=O)c(C(=O)NCc1ccc(F)cc1)cn3CC(=O)N2C)C[C@@H](O)c1cnccn1 [Example 30, N-(4-fluorobenzyl)-9-{[[(2R)-2-hydroxy-2-pyrazin-2-ylethyl](methyl)amino]methyl}-1-methyl-2,7-dioxo-2,3-dihydro-1H,7H-pyrido[1,2,3-de]quinoxaline-6-carboxamide] |
